# Measured values: US20250236589A1, “THERAPEUTIC PHENETHYLAMINE COMPOSITIONS AND METHODS OF USE” (Cybin IRL Limited, priority 2022, published 2025)
# Where two headings read alike, the source gives them in different places. Marks after values point to notes of the source that are not given here.
# Key:
# MAO-A = MAO-A (Homo sapiens (Human), UniProt P21397); test: Recombinant human MAO-A activity (stability); assay type: in vitro ADME; details: hrMAO 0.02 mg/mL, read-out: MAO-A, t1/2
# Description: hrMAO-A and MAO control were purchased from XenoTech. The reaction mixture was prepared as described below. The test compound was added into the reaction mixture at a final concentration of 1 μM or co-dosed with their deuterated analog at 1 μM each. The positive control kynuramine (25 μM) was run simultaneously with the test compound in a separate reaction. The reaction mixture (without test compounds or kynuramine) was equilibrated in a shaking water bath at 37° C. for 5 minutes. The reaction was initiated by the addition of the test compound or kynuramine, and the mixture was incubated in a shaking water bath at 37° C. Aliquots (150 μL) of the test compound reaction mixture were withdrawn at 0, 5, 10, 20, 30, 60, and 120 minutes. Aliquots (150 μL) of the positive control reaction mixture were withdrawn at 0 and 30 minutes. Test compound(s) and kynuramine samples were immediately combined with 150 μL of ice-cold 100% acetonitrile containing 0.1% formic acid and internal standard (0.2 μM metoprolol) to terminate the reaction. The samples were then mixed and centrifuged to precipitate proteins. All samples were assayed by LC-MS/MS. The peak area response ratio (PARR) of analyte to internal standard at each time point was compared to the PARR at time 0 to determine the percent remaining at each time point. Half-lives were calculated using GraphPad software, fitting to a single-phase exponential decay equation.
# [1] = In vitro liver microsome stability (RLM); assay type: in vitro ADME; details: rat, rat liver microsomes, 0.5 mg/mL microsomes, NADPH, read-out: RLM, t1/2
# Description: In vitro stability was determined in Human (HLM), Rat (RLM), Mouse (MsLM), and dog (DLM) Liver Microsomes. All liver microsomes were purchased from a commercial supplier (e.g. XenoTech). The reaction mixture, minus NADPH, was prepared as described below. The test compound was added into the reaction mixture at a final concentration of 1 μM or co-dosed with their deuterated analog(s) at 1 μM each. The control compound, testosterone, was run simultaneously with the test compound in a separate reaction. The reaction mixture (without cofactor) was equilibrated in a shaking water bath at 37° C. for 5 minutes. The reaction was initiated by the addition of the cofactor, and the mixture was incubated in a shaking water bath at 37° C. Aliquots (150 μL) were withdrawn at 0, 5, 10, 20, 30, 60, and 120 minutes. Test compound and testosterone samples were immediately combined with 150 μL of ice-cold acetonitrile (ACN) containing 0.1% formic acid and internal standard to terminate the reaction. The samples were then mixed and centrifuged to precipitate proteins. All samples were assayed by LC-MS/MS using electrospray ionization. The peak area response ratio (PARR) of analyte to internal standard at each time point was compared to the PARR at time 0 to determine the percent remaining at each time point. Half-lives were calculated using GraphPad software, fitting to a single-phase exponential decay equation.
# 5-HT2A receptor [2] = molecular target: T1, 5-HT2A receptor (Homo sapiens (Human), UniProt P28223); test: 5-HT2A radioligand competition binding ([3H]LSD or [3H]ketanserin)
# 5-HT2A receptor [3] = molecular target: T1, 5-HT2A receptor; test: 5-HT2A functional assay, IP1 (IPOne); assay type: cell-based; details: IP1 assay; for EC50: read-out: 5-HT2A EC50; for Emax: relative to 5-HT
# Description: After incubation, cells were lysed and fluorescence acceptor and donor were added. FRET was measured after 60 min at room temperature using a microplate reader (Envision, Perkin Elmer). TRUPATH assays followed a similar workflow, except that different reagents were used, and LiCl was not included in the samples; the protocol was based on the report by Olsen, R. H. J. et al., cited above.
# mice = test: Head-twitch response (HTR) screening in mice; assay type: in vivo, mouse
# Description: Protocols were followed according to Canal C E, Morgan D. Head-twitch response in rodents induced by the hallucinogen 2,5-dimethoxy-4-iodoamphetamine: a comprehensive history, a re-evaluation of mechanisms, and its utility as a model. […] Mice were housed in standard laboratory cages with ad libitum access to food and water and were acclimated to the vivarium for at least one week prior to testing in a procedure room. In a typical experiment, mice were injected 3 mg/kg of test article subcutaneously. Mice were placed immediately thereafter in a clear, polycarbonate box (46×20×20 cm), and HTRs were counted at various time points after administration using hand-held tally counters. In a separate experiment, plasma and brain samples were collected at 15 and 160 minutes after administration of test compounds to measure plasma and brain concentrations. Quantification was performed using LC-MS/MS method (LLOQ, 9 nM).
# human 5-HT2B receptor = human 5-HT2B receptor (Homo sapiens (Human), UniProt P41595); test: 5-HT2B functional assay, IP1 (IPOne); assay type: cell-based; details: for Emax: IP1 assay, relative to 5-HT
# Description: 5-HT2A,2B,2C receptor-mediated Gq activation—canonical signaling pathways—[phosphoinositide hydrolysis leading to the production of inositol phosphate 1 (IP1, IPOne, Cisbio assay) or direct G-protein activation using TRUPATH technology]were measured as previously described (Porter, R. H. P., Benwell, K. R., Lamb, H., Malcolm, C. S., Allen, N. F., Revell, D. F., Adams, D. R. and Sheardown, M. J., 1999, Functional characterization of agonists at recombinant human 5-HT2a, 5HT2b and 5-HT2c receptors in CHO-K1 cells, Brit J Pharmacol 128, 13; Olsen, R. H. J., DiBerto, J. F., English, J. G. et al. TRUPATH, an open-source biosensor platform for interrogating the GPCR transducerome. […] Briefly, for the IPOne assay, for 5-HT2ARs, CHO-K1 or HEK-293 cells were incubated with test articles and 5-HT (positive control) in stimulation buffer containing LiCl. After incubation, cells were lysed and fluorescence acceptor and donor were added. FRET was measured after 60 min at room temperature using a microplate reader (Envision, Perkin Elmer). TRUPATH assays followed a similar workflow, except that different reagents were used, and LiCl was not included in the samples; the protocol was based on the report by Olsen, R. H. J. et al., cited above.
# [4] = Plasma and brain concentrations after dosing in mice (screening); assay type: in vivo, mouse; details: mouse; for concentration at 15 min / concentration at 160 min: sc, mice, 3 mg/kg s.c.; for Kp at 160 min: brain/plasma, subcutaneous, 3 mg/kg, 160 min after 3 mg/kg, read-out: brain/plasma ratio, 160 min
# [5] = read-out: 5-HT2A, Ki, radioligand [3H]LSD
# [6] = brain, read-out: Brain, 160 min
# [7] = plasma, read-out: Plasma, 15 min
# [8] = plasma, read-out: Plasma, 160 min
# [9] = read-out: 5-HT2A, Ki, radioligand [3H]ketanserin
# human 5-HT2B receptor, sequence (P41595 whole entry, looked up): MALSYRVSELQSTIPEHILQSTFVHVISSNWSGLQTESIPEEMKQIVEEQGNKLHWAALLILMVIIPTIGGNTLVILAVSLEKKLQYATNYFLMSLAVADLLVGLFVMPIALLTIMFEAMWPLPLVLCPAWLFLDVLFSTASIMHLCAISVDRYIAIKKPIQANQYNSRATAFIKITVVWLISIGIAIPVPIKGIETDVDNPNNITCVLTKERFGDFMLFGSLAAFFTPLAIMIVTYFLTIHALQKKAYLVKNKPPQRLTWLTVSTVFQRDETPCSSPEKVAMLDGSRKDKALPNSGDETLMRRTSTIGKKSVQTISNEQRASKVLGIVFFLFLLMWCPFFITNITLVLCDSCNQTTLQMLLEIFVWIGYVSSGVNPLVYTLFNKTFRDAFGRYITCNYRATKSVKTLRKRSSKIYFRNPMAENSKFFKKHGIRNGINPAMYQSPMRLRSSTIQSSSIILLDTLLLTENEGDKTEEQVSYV
# MAO-A, sequence (P21397 whole entry, looked up): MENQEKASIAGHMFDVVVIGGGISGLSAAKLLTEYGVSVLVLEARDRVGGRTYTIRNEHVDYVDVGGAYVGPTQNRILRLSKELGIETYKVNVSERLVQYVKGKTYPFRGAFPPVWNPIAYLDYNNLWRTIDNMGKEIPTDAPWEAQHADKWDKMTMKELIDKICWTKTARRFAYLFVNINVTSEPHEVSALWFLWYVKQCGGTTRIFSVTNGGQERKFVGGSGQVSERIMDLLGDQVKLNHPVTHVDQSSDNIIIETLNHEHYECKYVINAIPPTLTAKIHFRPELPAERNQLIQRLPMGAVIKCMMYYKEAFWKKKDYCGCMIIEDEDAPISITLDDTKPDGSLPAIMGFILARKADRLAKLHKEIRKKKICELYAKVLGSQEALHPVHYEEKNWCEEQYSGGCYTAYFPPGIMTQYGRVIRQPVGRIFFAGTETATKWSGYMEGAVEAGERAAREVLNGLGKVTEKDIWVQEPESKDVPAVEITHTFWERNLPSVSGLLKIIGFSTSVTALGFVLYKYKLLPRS
compound,measurement,setting,value
"COc1cc(SCCC(F)(F)F)c(OC)cc1CCN [Compound I-2, 2-(2,5-dimethoxy-4-((3,3,3-trifluoropropyl)thio)phenyl)ethan-1-amine]",half-life at 1 μM,MAO-A,30.9 min
same,half-life at 1 μM,[1],24.8 min
same,affinity at 5-HT2A receptors (in words),5-HT2A receptor [2],high affinity
same,Ki,5-HT2A receptor [2]; [5],8.5 nM
"COc1cc(SCCCF)c(OC)cc1CCN [Compound I-4, 2-(4-((3-fluoropropyl)thio)-2,5-dimethoxyphenyl)ethan-1-amine]",half-life at 1 μM,MAO-A,45 min
same,half-life at 1 μM,[1],11 min
same,affinity at 5-HT2A receptors (in words),5-HT2A receptor [2],high affinity
same,Ki,5-HT2A receptor [2]; [5],12 nM
"COc1cc(OCCC(F)(F)F)c(OC)cc1CCN [Compound I-5, 2-(2,5-dimethoxy-4-(3,3,3-trifluoropropoxy)phenyl)ethan-1-amine]",half-life at 1 μM,[1],> 120 min
same,Ki,5-HT2A receptor [2],> 150 nM
"COc1cc(OCCC(F)F)c(OC)cc1CCN [Compound I-6, 2-(4-(3,3-difluoropropoxy)-2,5-dimethoxyphenyl)ethan-1-amine]",half-life at 1 μM,[1],> 120 min
same,Ki,5-HT2A receptor [2],> 150 nM
"COc1cc(OCCCF)c(OC)cc1CCN [Compound I-7, 2-(4-(3-fluoropropoxy)-2,5-dimethoxyphenyl)ethan-1-amine]",half-life at 1 μM,MAO-A,> 120 min
same,half-life at 1 μM,[1],> 120 min
same,Ki,5-HT2A receptor [2],> 150 nM
same,Ki,5-HT2A receptor [2]; [5],2600 nM
"COc1cc(SCC(F)(F)C(F)F)c(OC)cc1CCN [Compound I-10, 2-(2,5-dimethoxy-4-((2,2,3,3-tetrafluoropropyl)thio)phenyl)ethan-1-amine]",2A/2B EC50 Selectivity,5-HT2A receptor [3],2.7
same,EC50,5-HT2A receptor [3],89 nM
same,Emax,5-HT2A receptor [3],76%
same,HTR 15-25 min,"mice; mice, 3 mg/kg s.c.",3.4
same,HTR 160-170 min,"mice; mice, 3 mg/kg s.c.",2.7
same,EC50,human 5-HT2B receptor,240 nM
same,Emax,human 5-HT2B receptor,84%
same,concentration at 15 min,"[4]; brain, read-out: Brain 15 min",900 nM
same,concentration at 160 min,[4]; [6],1100 nM
same,Kp at 160 min,[4],12.3
same,concentration at 15 min,[4]; [7],900 nM
same,concentration at 160 min,[4]; [8],100 nM
same,affinity at 5-HT2A receptors (in words),5-HT2A receptor [2],high affinity
"C#CCSc1cc(OC)c(CCN)cc1OC [Compound I-11, 2-(2,5-dimethoxy-4-(prop-2-yn-1-ylthio)phenyl)ethan-1-amine]",HTR 15-25 min,mice; calculated using 0-30 min,24.5 ####
same,HTR 160-170 min,"mice; mice, 3 mg/kg s.c.",16.7
same,Ki,5-HT2A receptor [2]; [5],1.3 nM
"COc1cc(C2CCCC2)c(OC)cc1CCN [Compound I-13, 2-(4-cyclopentyl-2,5-dimethoxyphenyl)ethan-1-amine]",half-life at 1 μM,MAO-A,> 120 min
same,half-life at 1 μM,[1],7.8 min
same,HTR (in words),mice; 3 mg/kg,did not elicit an HTR
same,HTR 15-25 min,"mice; mice, 3 mg/kg s.c.",2.7
same,affinity at 5-HT2A receptors (in words),5-HT2A receptor [2],appreciable affinity
same,Ki,5-HT2A receptor [2]; [5],150 nM
"[2H]C([2H])([2H])Oc1cc(SC)c(OC([2H])([2H])[2H])cc1CCN [II-1, 2-(2,5-bis(methoxy-d3)-4-(methylthio)phenyl)ethan-1-amine]",half-life at 1 μM,[1],5.7 min
same,HTR 15-25 min,mice; measured 0-15 min,21 ##
same,Ki,5-HT2A receptor [2],> 150 nM
same,Ki,5-HT2A receptor [2]; [9],174 nM
"[2H]C([2H])([2H])Oc1cc(C(C)(C)C)c(OC([2H])([2H])[2H])cc1CCN [II-3, 2-(4-(tert-butyl)-2,5-bis(methoxy-d3)phenyl)ethan-1-amine]",half-life at 1 μM,[1],2.4 min
same,Ki,5-HT2A receptor [2]; [5],11 nM
"[2H]C([2H])([2H])Oc1cc(C2CCCC2)c(OC([2H])([2H])[2H])cc1CCN [II-4, 2-(4-cyclopentyl-2,5-bis(methoxy-d3)phenyl)ethan-1-amine]",half-life at 1 μM,MAO-A,> 120 min
same,half-life at 1 μM,[1],7.5 min
same,Ki,5-HT2A receptor [2],> 150 nM
same,Ki,5-HT2A receptor [2]; [5],202 nM
"[2H]C([2H])([2H])Oc1cc(C(F)(F)F)c(OC([2H])([2H])[2H])cc1CCN [II-23, 2-(2,5-bis(methoxy-d3)-4-(trifluoromethyl)phenyl)ethan-1-amine]",half-life at 1 μM,MAO-A,> 120 min
same,half-life at 1 μM,[1],21.4 min
same,Ki,5-HT2A receptor [2]; [9],55 nM
"[2H]C([2H])([2H])C(c1cc(OC)c(CCN)cc1OC)(C([2H])([2H])[2H])C([2H])([2H])[2H] [III-2, 2-(2,5-dimethoxy-4-(2-(methyl-d3)propan-2-yl-1,1,1,3,3,3-d6)phenyl)ethan-1-amine]",half-life at 1 μM,[1],2.5 min
same,Ki,5-HT2A receptor [2],10 nM
"[2H]C([2H])(N)Cc1cc(OC)c(SC)cc1OC [IV-1, 2-(2,5-dimethoxy-4-(methylthio)phenyl)ethan-1,1-d2-1-amine]",half-life at 1 μM,[1],5.3 min
same,Ki,5-HT2A receptor [2],> 150 nM
same,Ki,5-HT2A receptor [2]; [9],357 nM
"COc1cc(C(C)(C)C)c(OC)cc1CCN [VI-1, 2-(4-(tert-butyl)-2,5-dimethoxyphenyl)ethan-1-amine]",2A/2B EC50 Selectivity,5-HT2A receptor [3],6
same,EC50,5-HT2A receptor [3],4.2 nM
same,Emax,5-HT2A receptor [3],87%
same,half-life at 1 μM,[1],2.4 min
same,HTR 15-25 min,"mice; mice, 3 mg/kg s.c.",24.5
same,HTR 160-170 min,"mice; mice, 3 mg/kg s.c.",17.7
same,EC50,human 5-HT2B receptor,25 nM
same,Emax,human 5-HT2B receptor,87%
same,concentration at 15 min,"[4]; brain, read-out: Brain 15 min",2900 nM
same,concentration at 160 min,[4]; [6],4600 nM
same,Kp at 160 min,[4],57.1
same,concentration at 15 min,[4]; [7],250 nM
same,concentration at 160 min,[4]; [8],80 nM
same,Ki,5-HT2A receptor [2]; [5],9.9 nM
